Legend:
β-catenin = β-catenin immunofluorescence confocal analysis in HESCs; format: cell-based, human; conditions: compared to non-conditioned medium treated cells, FIG. 2c
Method: (§1) Cell culture. Human embryonic stem cells (HESCs) lines were provided by WiCell Research Institute (H1 line)^5 and BresaGen Inc. (BGN1 and BGN2 lines). H1 cells were cultivated on irradiated mouse embryonic fibroblasts (MEFs) in medium consisting of 80% DMEM/F12 medium, 20% knockout serum replacement (KSR), 1 mM L-glutamine, 1% non-essential amino acids, 0.1 mM β-mercaptoethanol, and 4 ng/ml basic FGF (all from Invitrogen). […] Subsequently, HESCs were cultured on Matrigel (BD biosciences) in medium conditioned by MEFs, and passaged several times until colonies became free from contaminating MEFs as described before^9.
Immunofluorescence. […] For the quantitative image analysis, fluorescent images from triplicate samples were taken by the Discovery1 system (Universal Imaging Corporation). The fluorescent objects were selected by the threshold function and evaluated in five regions of each well by quantification of pixel intensities and the object size by using MetaMorph software (Universal Imaging Corporation).

CJ-GFP cells (MESCs) [1] = assay: Blastocyst injection of treated CJ-GFP cells, chimera generation; format: in vivo, mouse
Method: Blastocyst injection. We cultured CJ-GFP cells at a low density (500 cells/cm^2) on gelatin-coated 10 cm dishes in medium containing 6-bromoindirubin-3′-oxime 1 μM for 5 d. 6-bromoindirubin-3′-oxime-treated cells (approximately 10 to 15 cells per blastocyst) were microinjected into each blastocyst and transferred into surrogate mice in the C57Bl/6 background. Mid-gestation embryos were recovered and subjected to tissue sectioning. Chimerism of live offspring was determined by evaluation of their mixed coat color.
Immunofluorescence. Cells were fixed in 4% paraformaldehyde for 20 min at room temperature and incubated overnight at 4° C. with primary antibodies against Oct-4 (BD Biosciences), β-catenin (BD Biosciences), Tuj-1 (BAbCO), cytokeratin (Sigma), glial fibrillary acidic protein, GFAP, (Dako), smooth muscle actin (Research Diagnostics Inc), α-fetoprotein (α-FP, Cell Sciences) and Tromal (Developmental Studies Hybridoma Bank). […] For the quantitative image analysis, fluorescent images from triplicate samples were taken by the Discovery1 system (Universal Imaging Corporation). The fluorescent objects were selected by the threshold function and evaluated in five regions of each well by quantification of pixel intensities and the object size by using MetaMorph software (Universal Imaging Corporation).

HESCs (H1, BGN1) = assay: Feeder-free culture of HESCs, undifferentiated morphology; format: cell-based, human; conditions: feeder-free, non-conditioned medium; 7 d; 6-bromoindirubin-3′-oxime and Me analogue 2 μM, LiCl 5 mM, Wnt3a protein
Method: as §1

HESCs (H1) = assay: Embryoid body formation from HESCs; format: cell-based, human
Method: Embryoid body (EB) formation. HESCs were harvested by using dispase (Invitrogen), plated on non-tissue culture treated dishes (approximately 10^7 cells/10 cm dish), and grown in non-conditioned medium for 7 d as described before (Sato et al., 2003, Molecular signature of human embryonic stem cells and its comparison with the mouse. Dev Biol 260, 404-413). The number of EBs was determined by counting EBs in 20 different fields at a low magnification (10×) using an Axiovert microscope (Zeiss). Experiments were repeated at least three times, and the average number as well as standard deviation were calculated. For the detection of differentiated derivatives by immunocytochemistry, EBs (day 7) were plated on collagen-coated 12-well plates to allow them to adhere, grown in DMEM containing 10% FBS to induce further differentiation for 7 d and fixed in 4% paraformaldehyde followed by immunostaining as shown below.
RT-PCR. Two μg of total RNA extracted from EBs (day 7) or mouse embryonic fibroblasts was reverse-transcribed using ThermoScript RT-PCR system (Invitrogen) according to the manufacturer's protocol. One μl of cDNA sample was PCR amplified with each gene-specific primers (shown below) using optimized PCR cycles to obtain amplified reactions in a linear range.

Oct-3/4 = Oct-3/4 immunocytochemistry in HESCs; format: cell-based, human
Method: as §1
Immunofluorescence. Cells were fixed in 4% paraformaldehyde for 20 min at room temperature and incubated overnight at 4° C. with primary antibodies against Oct-4 (BD Biosciences), β-catenin (BD Biosciences), Tuj-1 (BAbCO), cytokeratin (Sigma), glial fibrillary acidic protein, GFAP, (Dako), smooth muscle actin (Research Diagnostics Inc), α-fetoprotein (α-FP, Cell Sciences) and Tromal (Developmental Studies Hybridoma Bank). For nuclear localization analysis, the fixed samples were subjected to fluorescent digital confocal imaging analysis using a Zeiss LSM 510 confocal microscope (Carl Zeiss). For mouse embryonic tissue sections, mid gestation embryos were fixed in 4% paraformaldehyde followed by paraffin embedding and tissue sectioning. After deparaffinization, tissue sections were incubated with a GFP-specific antibody (Molecular Probe) at 4° C. overnight. Antigens were localized by using goat anti-mouse IgG conjugated to Cy3 or goat anti-rabbit IgG conjugated to Cy2 (Zymed laboratories). For the quantitative image analysis, fluorescent images from triplicate samples were taken by the Discovery1 system (Universal Imaging Corporation). The fluorescent objects were selected by the threshold function and evaluated in five regions of each well by quantification of pixel intensities and the object size by using MetaMorph software (Universal Imaging Corporation).

[2] = tested on: Oct-3/4 and Nanog transcripts; assay: Northern analysis of HESCs; format: cell-based, human; conditions: 7 d
Method: Northern analysis. Total RNA was isolated from cells by using Qiashredder and RNAeasy mini kit (Qiagen). The extracted RNA sample was quantified by UV spectrophotometer, and qualified by the RNA Nano Lab chip (Agilent Technologies). Ten μg of total RNA was electrophoresed on 1% agarose/formaldehyde gel and transferred onto a nylon membrane (Stratagene). Probes specific for human Oct-4 and human Nanog were prepared by RT-PCR using gene specific primer pairs (shown below) and the template cDNA generated from undifferentiated H1 cells, and radio-labeled with ^32P-dCTP by Prime-it probe labeling kit (Stratagene). The membrane was hybridized with the labeled probe using Perfecthybri (Sigma) and subjected to detection by Phosphor Imager (Amersham Biosciences).

Rex-1 promoter = assay: Rex-1 luciferase reporter assay in CJ7 cells; format: cell-based, mouse
Excerpt: Nat Biotechnol 20, 87-90), a small fragment containing the TCF binding sites and the cFos promoter in pTopFlash was excised by XbaI digestion, and cloned into pcDNA3-Venus in which Venus was introduced into the multiple cloning site between BamHI and EcoRI of the pcDNA3 vector (Invitrogen) whose CMV promoter was eliminated by BglII and HindIII digestion. […] To generate the Rex-1-Venus reporter construct, the Rex-1 promoter region was cloned into pcDNA3-Venus.
Luciferase assay. […] Test compounds were added 24 hrs after transfection. Following incubation for 24 hrs, cells were harvested, and analyzed by the dual luciferase reporter assay system (Promega) using Lumat (Berthold Technologies). Each value was standardized by Renilla luciferase activity.

CJ-GFP cells (MESCs) [3] = assay: Low-density culture of CJ-GFP MESCs without LIF, morphology; format: cell-based, mouse; conditions: 1 μM; 7 d plus 5 d at low density; data not shown for Me analogue
Method: Teratoma formation. We grew CJ-GFP cells at a low density (500 cells/cm^2) on gelatin-coated 10 cm dishes in medium containing 6-bromoindirubin-3′-oxime 1 μM for 7 d, then passaged cells at the same density and cultured under the same condition another 5 d to further enforce differentiation of cells.

O=C1Nc2cc(Br)ccc2/C1=C1/Nc2ccccc2/C1=N\O [6-bromoindirubin-3′-oxime]
nuclear accumulation of β-catenin (β-catenin): nuclear accumulation of β-catenin
coat-color chimerism of live offspring (CJ-GFP cells (MESCs) [1]; initial assessment, new-born animals): two of five new-born animals were chimeric
incorporation of treated cells into embryonic tissues (CJ-GFP cells (MESCs) [1]; mid-gestation stage, immunohistochemistry, FIG. 6): incorporated into several embryonic tissues
morphology / undifferentiated phenotype of HESCs (HESCs (H1, BGN1)): largely retained an undifferentiated morphology
lineage-specific markers of EBs by RT-PCR (HESCs (H1); EBs day 7, FIG. 5b): developed into ectoderm (NeuroD and keratin), mesoderm (T gene) and endoderm (α-fetoprotein and GATA4) derivatives
differentiation phenotype of adherent EBs by immunocytochemistry (HESCs (H1); EBs grown under adherent condition, FIG. 5c): wide variety of morphology and lineage-specific molecule expression
EBs formation (HESCs (H1); H1 cells after treatment, FIG. 5a): at a level comparable to that seen with conditioned medium-treated cells
Oct-3/4 expression at the cellular level (Oct-3/4; HESCs in non-conditioned medium, FIG. 4c): sustained Oct-3/4 expression
Oct-3/4 expression by quantitative imaging analysis (Oct-3/4; versus conditioned medium treatment, data not shown): comparable level of Oct-3/4 expression
Nanog transcript level [2]: substantial level of Nanog transcripts was preserved
Oct-3/4 transcript level ([2]; compared to conditioned medium-treated cells): substantial level of the Oct-3/4 transcript was maintained
Rex-1 promoter activity (Rex-1 promoter; CJ7 cells, compared to LIF-treated cells): substantial upregulation
Rex-1 transcriptional activation with dominant negative TCF-3 construct (Rex-1 promoter; cells transfected with dominant negative TCF-3): largely abolished
colony morphology of MESCs without LIF (CJ-GFP cells (MESCs) [3]): still formed round tight colonies

Reference: patent US20090111177A1, “Maintenance of Embryonic Stem Cells by the GSK-3 Inhibitor 6-Bromoindirubin-3'-Oxime” (THE ROCKEFELLER UNIVERSITY, priority 2003, published 2009)
